From PubChem BioAssay AID256 (DTP/NCI, 2004)
Where “and” joins values, the source holds several entries; their conditions need not be identical. Equal entries are not always repeated. Inconclusive results and toxic doses are left out.

Tested on: CD2F1 mice, L1210 leukemia ip, survival T/C
Assay: NCI In Vivo Anticancer Drug Screen. Data for tumor model L1210 Leukemia (intraperitoneal) in CD2F1 (CDF1) mice
Conditions: higher = longer survival
Summary of the method: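 Compound-dosed mice with transplantable tumor versus matched vehicle controls; endpoint ratio T/C reported.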

[1] = endpoint: mean survival time, dose: 100.0 mg/kg/injection, schedule: Q01DX001 (ip), vehicle: Klucel (hydroxypropylcellulose) (HPC)
[2] = endpoint: mean survival time, dose: 200.0 mg/kg/injection, schedule: Q01DX001 (ip), vehicle: Klucel (hydroxypropylcellulose) (HPC)
[3] = endpoint: mean survival time, dose: 100.0 mg/kg/injection, schedule: Q04DX003 (ip), vehicle: saline with Tween-80
[4] = endpoint: mean survival time, dose: 200.0 mg/kg/injection, schedule: Q04DX003 (ip), vehicle: saline with Tween-80
[5] = endpoint: mean survival time, dose: 400.0 mg/kg/injection, schedule: Q04DX003 (ip), vehicle: saline with Tween-80
[6] = endpoint: mean survival time, dose: 75.0 mg/kg/injection, schedule: Q01DX001 (ip), vehicle: saline
[7] = endpoint: mean survival time, dose: 100.0 mg/kg/injection, schedule: Q01DX001 (ip), vehicle: saline with Tween-80
[8] = endpoint: mean survival time, dose: 200.0 mg/kg/injection, schedule: Q01DX001 (ip), vehicle: saline with Tween-80
[9] = endpoint: mean survival time, dose: 400.0 mg/kg/injection, schedule: Q01DX001 (ip), vehicle: saline with Tween-80
[10] = endpoint: mean survival time, dose: 25.0 mg/kg/injection, schedule: Q01DX009 (ip), vehicle: Klucel (hydroxypropylcellulose) (HPC)

In the case of CC(=O)C1=C(O)C(Cc2ccccc2)NC1=O (stereo not given), the T/C [1] is reported as 98 % of control, the T/C [2] is reported as 102 % of control and the T/C (endpoint: mean survival time, dose: 400.0 mg/kg/injection, schedule: Q01DX001 (ip), vehicle: Klucel (hydroxypropylcellulose) (HPC)) is reported as 102 % of control.

CCCCCCCC/C=C/CCCCCCCCCCCCCCBr was tested, and the T/C [3] was 104 % of control, the T/C [4] was 98 % of control and the T/C [5] was 93 % of control.

With CN(CCC(=O)N(C)CCC1CCCCC1)CCC1CCCCC1 the T/C [6] was 98 % of control.

For CC(C)OC(=O)Nc1ccc(F)c(C(F)(F)F)c1, the T/C [3] was 96 % of control, the T/C [4] was 96 % of control and the T/C [5] was 94 % of control.

In the case of CC1(C)N=C(N)N=C(N)N1c1ccc(CCCCc2ccc(Cl)cc2Cl)cc1, the T/C (endpoint: mean survival time, dose: 6.25 mg/kg/injection, schedule: Q01DX009 (ip), vehicle: saline with Tween-80) is reported as 98 % of control, the T/C (endpoint: mean survival time, dose: 6.25 mg/kg/injection, schedule: Q04DX003 (ip), vehicle: saline sonified) is reported as 96 % of control and the T/C (endpoint: mean survival time, dose: 12.5 mg/kg/injection, schedule: Q01DX009 (ip), vehicle: saline with Tween-80) is reported as 102 % of control. For the same molecule, the T/C (endpoint: mean survival time, dose: 12.5 mg/kg/injection, schedule: Q04DX003 (ip), vehicle: saline sonified) was 98 % of control and the T/C (endpoint: mean survival time, dose: 25.0 mg/kg/injection, schedule: Q04DX003 (ip), vehicle: saline sonified) was 100 % of control.

For C=Cc1ccc(NC(=O)CCn2cnc3c(N)ncnc32)cc1, the T/C (endpoint: mean survival time, dose: 12.5 mg/kg/injection, schedule: Q01DX005 (ip), vehicle: distilled water + Tween-80) was 100 % of control, the T/C (endpoint: mean survival time, dose: 25.0 mg/kg/injection, schedule: Q01DX005 (ip), vehicle: distilled water + Tween-80) was 102 % of control and the T/C (endpoint: mean survival time, dose: 50.0 mg/kg/injection, schedule: Q01DX005 (ip), vehicle: distilled water + Tween-80) was 98 % of control. The T/C (endpoint: mean survival time, dose: 100.0 mg/kg/injection, schedule: Q01DX005 (ip), vehicle: distilled water + Tween-80) was 98 % of control and the T/C (endpoint: mean survival time, dose: 200.0 mg/kg/injection, schedule: Q01DX005 (ip), vehicle: distilled water + Tween-80) was 98 % of control.

Cc1noc(N)c1C was tested, and the T/C (endpoint: mean survival time, dose: 50.0 mg/kg/injection, schedule: Q01DX009 (ip), vehicle: saline with Tween-80) was 92 % of control, the T/C (endpoint: mean survival time, dose: 100.0 mg/kg/injection, schedule: Q01DX009 (ip), vehicle: saline with Tween-80) was 95 % of control and the T/C (endpoint: mean survival time, dose: 200.0 mg/kg/injection, schedule: Q01DX009 (ip), vehicle: saline with Tween-80) was 92 % of control.

In the case of Nc1cccc(CCc2ccc(-c3nc4ncnc(N)c4[nH]3)cc2)c1, the T/C [7] is reported as 86 % of control, the T/C [8] is reported as 88 % of control and the T/C [9] is reported as 93 % of control.

Nc1ccc(N=Nc2ccc(S(=O)(=O)O)cc2)cc1 was tested, and the T/C [3] was 97 % of control, the T/C [4] was 93 % of control and the T/C [5] was 97 % of control.

Cc1cc(C)c(CC=O)c(C)c1 was tested, and the T/C (endpoint: median survival time, dose: 25.0 mg/kg/injection, schedule: Q04DX002 (ip), vehicle: saline with Tween-80) was 100 % of control, the T/C (endpoint: median survival time, dose: 50.0 mg/kg/injection, schedule: Q04DX002 (ip), vehicle: saline with Tween-80) was 100 % of control and the T/C (endpoint: median survival time, dose: 100.0 mg/kg/injection, schedule: Q04DX002 (ip), vehicle: saline with Tween-80) was 100 % of control. For the same molecule, the T/C (endpoint: median survival time, dose: 200.0 mg/kg/injection, schedule: Q04DX002 (ip), vehicle: saline with Tween-80) was 100 % of control.

For COc1ccc(N(C)C/C(CN)=N/O)cc1, the T/C [1] was 97 % of control and the T/C [2] was 102 % of control.

In the case of COc1ccc(C2OC2C(=O)O)cc1OC (stereo not given), the T/C [3] is reported as 98 % of control, the T/C [4] is reported as 86 % of control and the T/C [5] is reported as 96 % of control.

With OCC1CCC(CO)CC1 (stereo not given) the T/C (endpoint: mean survival time, dose: 6.25 mg/kg/injection, schedule: Q01DX009 (ip), vehicle: Klucel (hydroxypropylcellulose) (HPC)) was 100 % of control, the T/C (endpoint: mean survival time, dose: 12.5 mg/kg/injection, schedule: Q01DX009 (ip), vehicle: Klucel (hydroxypropylcellulose) (HPC)) was 95 % of control and the T/C [10] was 103 % of control.

For COc1cccc2c1C(=O)c1c(O)c3c(c(O)c1C2=O)C[C@@](O)(C(C)=O)C[C@@H]3OC1CC(N(C)C)C(O)C(C)O1 (stereo not given in full), the T/C (endpoint: mean survival time, dose: 0.25 mg/kg/injection, schedule: Q01DX009 (ip), vehicle: saline) was 109 % of control, the T/C (endpoint: mean survival time, dose: 0.5 mg/kg/injection, schedule: Q01DX009 (ip), vehicle: saline) was 120 % of control and 111 % of control and the T/C (endpoint: mean survival time, dose: 0.5 mg/kg/injection, schedule: Q01DX009 (ip), vehicle: water) was 110 % of control. For the same molecule, the T/C (endpoint: mean survival time, dose: 1.0 mg/kg/injection, schedule: Q01DX009 (ip), vehicle: saline) was 105 % of control, the T/C (endpoint: mean survival time, dose: 1.0 mg/kg/injection, schedule: Q01DX009 (ip), vehicle: water) was 119 % of control and the T/C (endpoint: mean survival time, dose: 2.0 mg/kg/injection, schedule: Q01DX009 (ip), vehicle: saline) was 102 % of control. For the same molecule, the T/C (endpoint: mean survival time, dose: 4.0 mg/kg/injection, schedule: Q01DX009 (ip), vehicle: saline) was 161 % of control, the T/C (endpoint: mean survival time, dose: 8.0 mg/kg/injection, schedule: Q01DX009 (ip), vehicle: saline) was 88 % of control and 103 % of control and the T/C (endpoint: mean survival time, dose: 8.0 mg/kg/injection, schedule: Q01DX009 (ip), vehicle: water) was 88 % of control.

In the case of O=C1c2ccccc2C(=O)N1CCCCN1C(=O)c2ccccc2C1=O, the T/C [7] is reported as 90 % of control, the T/C [8] is reported as 87 % of control and the T/C [9] is reported as 90 % of control.

For O=C(O)C(=O)O.[NH-]C(c1ccccc1)C([NH-])c1ccccc1.[Pt+2] (stereo not given), the T/C (endpoint: mean survival time, dose: 6.25 mg/kg/injection, schedule: Q04DX003 (ip), vehicle: saline with Tween-80) was 118 % of control and the T/C (endpoint: mean survival time, dose: 12.5 mg/kg/injection, schedule: Q04DX003 (ip), vehicle: saline with Tween-80) was 124 % of control.

O=C(O)C1OC12CCCCC2 (stereo not given) was tested, and the T/C (endpoint: mean survival time, dose: 100.0 mg/kg/injection, schedule: Q01DX009 (ip), vehicle: saline) was 96 % of control, the T/C (endpoint: mean survival time, dose: 100.0 mg/kg/injection, schedule: Q04DX003 (ip), vehicle: saline) was 100 % of control and the T/C (endpoint: mean survival time, dose: 200.0 mg/kg/injection, schedule: Q01DX009 (ip), vehicle: saline) was 101 % of control. For the same molecule, the T/C (endpoint: mean survival time, dose: 200.0 mg/kg/injection, schedule: Q04DX003 (ip), vehicle: saline) was 101 % of control, the T/C (endpoint: mean survival time, dose: 400.0 mg/kg/injection, schedule: Q01DX009 (ip), vehicle: saline) was 100 % of control and the T/C (endpoint: mean survival time, dose: 400.0 mg/kg/injection, schedule: Q04DX003 (ip), vehicle: saline) was 103 % of control.

For CC=C1C=C(C(C)(C)C)C(=O)C(C(C)(C)C)=C1, the T/C [10] was 90 % of control, the T/C (endpoint: mean survival time, dose: 50.0 mg/kg/injection, schedule: Q01DX009 (ip), vehicle: Klucel (hydroxypropylcellulose) (HPC)) was 102 % of control and the T/C (endpoint: mean survival time, dose: 100.0 mg/kg/injection, schedule: Q01DX009 (ip), vehicle: Klucel (hydroxypropylcellulose) (HPC)) was 98 % of control.

With CC(=O)N(Cc1ccncc1)N=O the T/C (endpoint: mean survival time, dose: 75.0 mg/kg/injection, schedule: Q01DX001 (ip), vehicle: water) was 110 % of control, the T/C (endpoint: mean survival time, dose: 150.0 mg/kg/injection, schedule: Q01DX001 (ip), vehicle: water) was 114 % of control and the T/C (endpoint: mean survival time, dose: 300.0 mg/kg/injection, schedule: Q01DX001 (ip), vehicle: water) was 116 % of control.

In the case of COC1SCCCS1, the T/C (endpoint: mean survival time, dose: 12.5 mg/kg/injection, schedule: Q04DX002 (ip), vehicle: saline with Tween-80) is reported as 97 % of control, the T/C (endpoint: mean survival time, dose: 25.0 mg/kg/injection, schedule: Q04DX002 (ip), vehicle: saline with Tween-80) is reported as 108 % of control and the T/C (endpoint: mean survival time, dose: 50.0 mg/kg/injection, schedule: Q04DX002 (ip), vehicle: saline with Tween-80) is reported as 105 % of control.

CC1=CC2C(O)(CC(CO)=CC3C4C(C)(C)C4(OC(=O)c4ccccc4)C(OC(=O)c4ccccc4)C(C)C32O)C1=O (stereo not given) was tested, and the T/C (endpoint: median survival time, dose: 0.25 mg/kg/injection, schedule: Q01DX009 (ip), vehicle: saline with Tween-80) was 95 % of control, the T/C (endpoint: median survival time, dose: 0.5 mg/kg/injection, schedule: Q01DX009 (ip), vehicle: saline with Tween-80) was 94 % of control and the T/C (endpoint: median survival time, dose: 1.0 mg/kg/injection, schedule: Q01DX009 (ip), vehicle: saline with Tween-80) was 94 % of control.

Cc1cc(C(=O)O)c(C)c([N+](=O)[O-])c1 was tested, and the T/C [7] was 96 % of control, the T/C [8] was 96 % of control and the T/C [9] was 100 % of control.

For CC(=O)OC1CCC2(C)C(CCC3C2CCC2(C)C3CC3OC4(CCC(C)CO4)C(C)C32)C1 (stereo not given), the T/C [3] was 95 % of control and 92 % of control, the T/C [4] was 89 % of control and 90 % of control and 95 % of control and the T/C [5] was 87 % of control and 90 % of control.

In the case of N=C(N)N1CCc2ccccc2C1, the T/C (endpoint: mean survival time, dose: 18.8 mg/kg/injection, schedule: Q01DX009 (ip), vehicle: saline) is reported as 103 % of control, the T/C (endpoint: mean survival time, dose: 37.5 mg/kg/injection, schedule: Q01DX009 (ip), vehicle: saline) is reported as 98 % of control and the T/C [6] is reported as 97 % of control. For the same molecule, the T/C (endpoint: mean survival time, dose: 75.0 mg/kg/injection, schedule: Q01DX009 (ip), vehicle: saline) was 103 % of control.

For N#CCCCCCCN=[N+]=[N-], the T/C [6] was 98 % of control and the T/C (endpoint: mean survival time, dose: 150.0 mg/kg/injection, schedule: Q01DX001 (ip), vehicle: saline) was 98 % of control.

C=C(C)CN=C=S was tested, and the T/C [3] was 98 % of control.

In the case of CC(=O)OCC1OC(n2ccc(O)cc2=O)C(O)C1O (stereo not given), the T/C (endpoint: median survival time, dose: 44.0 mg/kg/injection, schedule: Q01DX009 (ip), vehicle: saline + alcohol) is reported as 160 % of control, the T/C (endpoint: median survival time, dose: 67.0 mg/kg/injection, schedule: Q01DX009 (ip), vehicle: saline + alcohol) is reported as 169 % of control and the T/C (endpoint: median survival time, dose: 100.0 mg/kg/injection, schedule: Q01DX009 (ip), vehicle: saline + alcohol) is reported as 172 % of control. The T/C (endpoint: median survival time, dose: 150.0 mg/kg/injection, schedule: Q01DX009 (ip), vehicle: saline + alcohol) was 174 % of control.
